Assay in all cases: MIC by serial dilution on Iso-Sensitest Agar
Common to all, as to assay type: cell-based

Test [1] deals with Staphylococcus aureus 133. To be noted: 37° C., about 20 hours, about 10^4 colony-forming particles. The procedure: (§1) The minimum inhibitory concentrations (MIC) of the compounds according to the invention were determined by serial dilution methods on Iso-Sensitest Agar (Oxoid). For each test substance, a number of agar plates were prepared which, in each case at double the dilution, contained decreasing concentrations of the active compound. The agar plates were inoculated using a multipoint inoculator (Denley). For inoculation, overnight cultures of the pathogens were used which had previously been diluted such that each inoculation point contained about 10^4 colony-forming particles. The inoculated agar plates were incubated at 37° C., and the bacterial growth was read off after about 20 hours. The MIC value (μg/ml) indicates the lowest active compound concentration at which no growth was to be observed using the naked eye.

The subject of test [2] is Klebsiella pneumonia 8085. To be noted: Klebsiella pneumoniae, 37° C., about 20 hours, about 10^4 colony-forming particles. The procedure: as §1
The subject of test [3] is Enterococcus faecalis 27101. To be noted: 37° C., about 20 hours, about 10^4 colony-forming particles. The procedure: as §1
The test system of test [4] is Staphylococcus aureus ICB 25701. To be noted: ICB25701, 37° C., about 20 hours, about 10^4 colony-forming particles. The procedure: as §1
For the next test, the system named is E. coli ATCC 25922. To be noted: Escherichia coli, ATCC25922, 37° C., about 20 hours, about 10^4 colony-forming particles. The procedure: as §1
The test system of another test is E. coli Neumann. To be noted: Escherichia coli, 37° C., about 20 hours, about 10^4 colony-forming particles. The procedure: as §1
The subject of test [5] is Staphylococcus aureus ICB 25768. To be noted: ICB25768, 37° C., about 20 hours, about 10^4 colony-forming particles. The procedure: as §1
Test [6] deals with Enterococcus faecalis 9790. To be noted: 37° C., about 20 hours, about 10^4 colony-forming particles. The procedure: as §1
A further test concerns Providencia sp. 12012. To be noted: 37° C., about 20 hours, about 10^4 colony-forming particles. The procedure:
as §1

For test [7], the system named is Staphylococcus aureus ATCC29213. To be noted: 37° C., about 20 hours, about 10^4 colony-forming particles. Here is the method:
as §1

Another test relates to Micrococcus luteus 9341. To be noted: 37° C., about 20 hours, about 10^4 colony-forming particles. Here is the method:
as §1

The test system of another test is Klebsiella pneumonia 63. To be noted: Klebsiella pneumoniae, 37° C., about 20 hours, about 10^4 colony-forming particles. Here is the method: as §1

In brackets after ≈: the same amount, converted by molar mass.

In patent publication US5744478A, “Thiazolo [3,2-a] quinoline and thiazolo [3,2-a] naphthyridine derivatives” (Bayer Aktiengesellschaft, priority 1994, dated 1998) one finds MIC data, which are given here for four compounds.

As usually defined, the MIC is the least concentration at which growth counts as inhibited. A higher MIC goes with a less susceptible organism.

Consider `O=C(O)c1c(=O)c2cc(F)c(N3C[C@@H]4CCCN[C@@H]4C3)c3c2n2c(csc12)CO3` [Example 2], for which the MIC in [1] is at most 0.015 µg/mL; in test [2], at most 0.015 µg/mL; in [3], 0.03 µg/mL (≈ 0.0722 µM); in test [4] it was 0.5 µg/mL (≈ 1.2 µM); against E. coli ATCC 25922, at most 0.015 µg/mL; in the test with E. coli Neumann, at most 0.015 µg/mL. Besides, the MIC in test [5] was 32 µg/mL (≈ 77 µM); in test [6], 0.03 µg/mL (≈ 0.0722 µM); against Providencia sp. 12012, at most 0.015 µg/mL; in [7], at most 0.015 µg/mL; in the test on Micrococcus luteus 9341, 0.125 µg/mL (≈ 0.301 µM); in the test with Klebsiella pneumonia 63, at most 0.015 µg/mL.

For `CNC1C=CCC2CN(c3c(F)cc4c(=O)c(C(=O)O)c5scc6n5c4c3OC6)CC21` (stereo not drawn) [Example 3, 7-Fluoro-8-(2-methylamino-8-azabicyclo[4.3.0]non-3-en-8-yl)-5-oxo-9,1-(epoxymethano)-5H-thiazolo[3,2-a]quinoline-4-carboxylic acid], the MIC in test [1] was at most 0.015 µg/mL; in test [2], at most 0.015 µg/mL; in test [3], at most 0.015 µg/mL; in test [4], 0.06 µg/mL (≈ 0.136 µM); against E. coli ATCC 25922, at most 0.015 µg/mL; in the test on E. coli Neumann, at most 0.015 µg/mL. Also, the MIC is 0.5 µg/mL (≈ 1.13 µM) in [5]; at most 0.015 µg/mL in test [6]; at most 0.015 µg/mL in the test with Providencia sp. 12012; at most 0.015 µg/mL in [7]; at most 0.015 µg/mL against Micrococcus luteus 9341; at most 0.015 µg/mL in the test on Klebsiella pneumonia 63.

Take `NC1C=CCC2CN(c3c(F)cc4c(=O)c(C(=O)O)c5scc6n5c4c3OC6)CC12` (stereo not drawn) [Example 4, 8-(2-Amino-8-azabicyclo[4.3.0]non-3-en-8-yl)-7-fluoro-5-oxo-9,1-(epoxymethano)-5H-thiazolo[3,2-a]quinoline-4-carboxylic acid]: the MIC in [1] is at most 0.015 µg/mL; in test [2], at most 0.015 µg/mL; in test [3], at most 0.015 µg/mL; in test [4] it was 0.06 µg/mL (≈ 0.14 µM); in the test on E. coli ATCC 25922, at most 0.015 µg/mL; with E. coli Neumann, at most 0.015 µg/mL. The MIC in test [5] is 0.25 µg/mL (≈ 0.585 µM); in test [6], at most 0.015 µg/mL; against Providencia sp. 12012, at most 0.015 µg/mL; in test [7], at most 0.015 µg/mL; with Micrococcus luteus 9341, at most 0.015 µg/mL; against Klebsiella pneumonia 63 it was at most 0.015 µg/mL.

`CC1C=CC(N)C2CN(c3c(F)cc4c(=O)c(C(=O)O)c5scc6n5c4c3OC6)CC12` (stereo not drawn) [Example 5, 8-(2-Amino-5-methyl-8-azabicyclo[4.3.0]non-3-en-8-yl)-7-fluoro-5-oxo-9,1-(epoxymethano)-5H-thiazolo[3,2-a]quinoline-4-carboxylic acid]: the MIC in test [1] was at most 0.015 µg/mL; in [2], at most 0.015 µg/mL; in [3], at most 0.015 µg/mL; in test [4], 0.06 µg/mL (≈ 0.136 µM); against E. coli ATCC 25922, at most 0.015 µg/mL; with E. coli Neumann it was at most 0.015 µg/mL. The MIC is 0.5 µg/mL (≈ 1.13 µM) in test [5]; at most 0.015 µg/mL in test [6]; at most 0.015 µg/mL in the test with Providencia sp. 12012; at most 0.015 µg/mL in test [7]; at most 0.015 µg/mL against Micrococcus luteus 9341; at most 0.015 µg/mL against Klebsiella pneumonia 63.
